Data reported in US20240246977A1, “DEGRADATION OF BRUTON'S TYROSINE KINASE (BTK) BY CONJUGATION OF BTK INHIBITORS WITH E3 LIGASE LIGAND AND METHOD OF USE” (BeiGene Switzerland GmbH, priority 2021, published 2024).

Key:
[1] = target: BTK (Homo sapiens, UniProt Q06187); assay: BTK cell degradation in TMD-8 cells, HTRF assay; type: cell-based; parameters: endogenous in cells; host or cells: TMD-8 cells; conditions: 6 h treatment, IC50 (DC50) of BTK degradation
In short: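 BTK levels read by HTRF in lysates of TMD-8 cells exposed to compounds for 6 h, eight concentrations at 6-fold steps in 0.2% DMSO. Percent degradation versus DMSO and low controls was fitted with a four-parameter equation to give DC50; Dmax is maximal degradation.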

[2] = system: HEK-293 cells; assay: HEK-293 cytotoxicity detection (CellTiter-Glo); type: cell-based; conditions: Homo sapiens, 72 h, 72 h incubation, CellTiter-Glo luminescence, read-out: HEK293
In short: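 HEK-293 cells exposed 72 h to 8 compounds doses (4-fold dilutions, top stock 5 mM at 500×) in 0.2% DMSO. Viability by CellTiter-Glo luminescence; inhibition normalised to DMSO high control and low control, IC50 from four-parameter curve fit.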

Sequence of BTK (Q06187 whole entry): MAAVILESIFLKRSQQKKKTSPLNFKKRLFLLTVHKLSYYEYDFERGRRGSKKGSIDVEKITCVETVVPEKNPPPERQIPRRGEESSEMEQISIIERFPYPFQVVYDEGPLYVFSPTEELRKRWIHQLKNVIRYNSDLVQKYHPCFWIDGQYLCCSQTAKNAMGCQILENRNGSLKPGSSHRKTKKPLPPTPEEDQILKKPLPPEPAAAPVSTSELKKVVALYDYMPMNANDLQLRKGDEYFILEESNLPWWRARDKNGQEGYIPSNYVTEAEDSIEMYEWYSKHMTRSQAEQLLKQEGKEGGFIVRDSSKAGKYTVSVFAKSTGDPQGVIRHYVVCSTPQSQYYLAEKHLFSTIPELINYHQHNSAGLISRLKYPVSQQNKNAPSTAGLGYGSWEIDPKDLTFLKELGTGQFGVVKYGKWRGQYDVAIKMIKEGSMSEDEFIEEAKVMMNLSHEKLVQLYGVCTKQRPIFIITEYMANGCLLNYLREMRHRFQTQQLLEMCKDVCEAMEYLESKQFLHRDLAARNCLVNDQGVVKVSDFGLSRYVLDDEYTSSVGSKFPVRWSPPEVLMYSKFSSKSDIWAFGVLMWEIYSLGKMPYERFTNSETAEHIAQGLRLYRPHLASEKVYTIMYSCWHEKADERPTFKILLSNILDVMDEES

SMILES | DC50 [1] | IC50 [2]
Cc1cccc(NC(=O)c2ccc(-c3nn4c(c3C(N)=O)Nc3ccc(N5CCN(C6CN(C7CN(c8ccc(C9CCC(=O)NC9=O)cc8)C7)C6)CC5)cc3CC4)c(F)c2C)n1 (centres unmarked) [Example B65, 7-(4-(1′-(4-(2,6-dioxopiperidin-3-yl)phenyl)-[1,3′-biazetidin]-3-yl)piperazin-1-yl)-2-(2-fluoro-3-methyl-4-((6-methylpyridin-2-yl)carbamoyl)phenyl)-9,10-dihydro-4H-benzo[d]pyrazol[1,5-a][1,3]diazepine-carboxamide] | 1.78 nM | 98.8 nM
NC(=O)c1c(-c2cc(F)c(C(=O)Nc3cc(C(F)(F)F)ccn3)c(F)c2)nn2c1Nc1ccc(N3CCN(CC4CCN(c5ccc(N6CCC(=O)NC6=O)cc5)CC4)CC3)cc1CC2 [Example B14, 2-(3,5-difluoro-4-((4-(trifluoromethyl)pyridin-2-yl)carbamoyl)phenyl)-7-(4-((1-(4-(2,4-dioxotetrahydropyrimidin-1(2H)-yl)phenyl)piperidin-4-yl)methyl)piperazin-1-yl)-9,10-dihydro-4H-benzo[d]pyrazolo[1,5-a][1,3]diazepine-3-carboxamide] | 1.61 nM | 75.4 nM
Cc1c(C(=O)Nc2cn(C)cn2)ccc(-c2nn3c(c2C(N)=O)Nc2ccc(N4CCN(C[C@H]5CCN(c6ccc(N7CCC(=O)NC7=O)cc6)C5)CC4)cc2CC3)c1F [Example B92, (R)-7-(4-((1-(4-(2,4-dioxotetrahydropyrimidin-1(2H)-yl)phenyl)pyrrolidin-3-yl)methyl)piperazin-1-yl)-2-(2-fluoro-3-methyl-4-((1-methyl-1H-imidazol-4-yl)carbamoyl)phenyl)-9,10-dihydro-4H-benzo[d]pyrazolo[1,5-a][1,3]diazepine-3-carboxamide] | 1.86 nM | > 10000 nM
COc1ccc(C(F)(F)F)cc1C(=O)NCc1ccc(-c2nn3c(c2C(N)=O)Nc2ccc(N4CCN(CC5CCN(c6ccc(N7CCC(=O)NC7=O)cc6)CC5)CC4)cc2CC3)c(F)c1 [Example C24, 7-(4-((1-(4-(2,4-dioxotetrahydropyrimidin-1(2H)-yl)phenyl)piperidin-4-yl)methyl)piperazin-1-yl)-2-(2-fluoro-4-((2-methoxy-5-(trifluoromethyl)benzamido)methyl)phenyl)-9,10-dihydro-4H-benzo[d]pyrazolo[1,5-a][1,3]diazepine-3-carboxamide] | 2.11 nM | > 10000 nM
NC(=O)c1c(-c2ccc(Oc3ccccc3)cc2)nn2c1Nc1ccc(C(=O)N3CCN(CC4CCN(c5ccc6c(c5)C(=O)N(C5CCC(=O)NC5=O)C6=O)CC4)CC3)cc1CC2 (centres unmarked) [Example A13, 7-(4-((1-(2-(2,6-dioxopiperidin-3-yl)-1,3-dioxoisoindolin-5-yl)piperidin-4-yl)methyl)piperazine-1-carbonyl)-2-(4-phenoxyphenyl)-9,10-dihydro-4H-benzo[d]pyrazolo[1,5-a][1,3]diazepine-3-carboxamide] | 2.79 nM | 167 nM
NC(=O)c1c(-c2ccc(C(=O)Nc3cc(C(F)(F)F)ccn3)cc2Cl)nn2c1Nc1ccc(N3CCN(CC4CCN(c5ccc(N6CCC(=O)NC6=O)cc5)CC4)CC3)cc1CC2 [Example B24, 2-(2-chloro-4-((4-(trifluoromethyl)pyridin-2-yl)carbamoyl)phenyl)-7-(4-((1-(4-(2,4-dioxotetrahydropyrimidin-1(2H)-yl)phenyl)piperidin-4-yl)methyl)piperazin-1-yl)-9,10-dihydro-4-benzo[d]pyrazolo[1,5-a][1,3]diazepine-3-carboxamide] | 1.51 nM | > 10000 nM
Cc1cccc(NC(=O)c2ccc(-c3nn4c(c3C(N)=O)Nc3ccc(N5CCN(CCc6cc(F)c([C@H]7CCC(=O)NC7=O)c(F)c6)CC5)cc3CC4)c(F)c2C)n1 [Example B63, (R)-7-(4-(4-(2,6-dioxopiperidin-3-yl)-3,5-difluorophenethyl)piperazin-1-yl)-2-(2-fluoro-3-methyl-4-((6-methylpyridin-2-yl)carbamoyl)phenyl)-9,10-dihydro-4H-benzo[d]pyrazolo[1,5-a][1,3]diazepine-3-carboxamide] | 2.32 nM | > 10000 nM

The next lines start with results.

DC50 [1] | SMILES | IC50 [2]
> 2000 nM | Cc1cccc(NC(=O)c2ncc(-c3nn4c(c3C#N)Nc3ccc(N5CCN(CC6CCN(c7ccc(N8CCC(=O)NC8=O)cc7)CC6)CC5)cc3CC4)cc2C)n1 [Example B31, 5-(3-cyano-7-(4-((1-(4-(2,4-dioxotetrahydropyrimidin-1(2H)-yl)phenyl)piperidin-4-yl)methyl)piperazin-1-yl)-9,10-dihydro-4H-benzo[d]pyrazolo[1,5-a][1,3]diazepin-2-yl)-3-methyl-N-(6-methylpyridin-2-yl)picolinamide] | 133 nM
7.96 nM | COc1cccc(C)c1C(=O)NCc1ccc(-c2nn3c(c2C(N)=O)Nc2ccc(N4CCN(CC5CCN(c6ccc(N7CCC(=O)NC7=O)cc6)CC5)CC4)cc2CC3)cc1C [Example C38, 7-(4-((1-(4-(2,4-dioxotetrahydropyrimidin-1(2H)-yl)phenyl)piperidin-4-yl)methyl)piperazin-1-yl)-2-(4-((2-methoxy-6-methylbenzamido)methyl)-3-methylphenyl)-9,10-dihydro-4H-benzo[d]pyrazolo[1,5-a][1,3]diazepine-3-carboxamide] | > 10000 nM
5.69 nM | Cc1cncc(NC(=O)c2ccc(-c3nn4c(c3C(N)=O)Nc3ccc(N5CCN(CC6CCN(c7ccc(N8CCC(=O)NC8=O)cc7)CC6)CC5)cc3CC4)c(F)c2C)n1 [Example B40, 7-(4-((1-(4-(2,4-dioxotetrahydropyrimidin-1(2H)-yl)phenyl)piperidin-4-yl)methyl)piperazin-1-yl)-2-(2-fluoro-3-methyl-4-((6-methylpyrazin-2-yl)carbamoyl)phenyl)-9,10-dihydro-4H-benzo[d]pyrazolo[1,5-a][1,3]diazepine-3-carboxamide] | > 10000 nM
47.2 nM | Cc1cccc(NC(=O)c2cnc(-c3nn4c(c3C(N)=O)Nc3ccc(N5CCN(CC6CCN(c7ccc(N8CCC(=O)NC8=O)cc7)CC6)CC5)cc3CC4)cc2C)n1 [Example B36, 7-(4-((1-(4-(2,4-dioxotetrahydropyrimidin-1(2H)-yl)phenyl)piperidin-4-yl)methyl)piperazin-1-yl)-2-(4-methyl-5-((6-methylpyridin-2-yl)carbamoyl)pyridin-2-yl)-9,10-dihydro-4H-benzo[d]pyrazolo[1,5-a][1,3]diazepine-3-carboxamide] | > 10000 nM
3.91 nM | COc1ncccc1C(=O)NCc1ccc(-c2nn3c(c2C(N)=O)Nc2ccc(N4CCN(CC5CCN(c6ccc(N7CCC(=O)NC7=O)cc6)CC5)CC4)cc2CC3)cc1C [Example C34, 7-(4-((1-(4-(2,4-dioxotetrahydropyrimidin-1(2H)-yl)phenyl)piperidin-4-yl)methyl)piperazin-1-yl)-2-(4-((2-methoxynicotinamido)methyl)-3-methylphenyl)-9,10-dihydro-4H-benzo[d]pyrazolo[1,5-a][1,3]diazepine-3-carboxamide] | > 10000 nM
5.36 nM | COc1ccc(F)cc1C(=O)NCc1ccc(-c2nn3c(c2C(N)=O)Nc2ccc(N4CCN(CC5CCN(c6ccc(N7CCC(=O)NC7=O)cc6)CC5)CC4)cc2CC3)cc1C [Example C42, 7-(4-((1-(4-(2,4-dioxotetrahydropyrimidin-1(2H)-yl)phenyl)piperidin-4-yl)methyl)piperazin-1-yl)-2-(4-((5-fluoro-2-methoxybenzamido)methyl)-3-methylphenyl)-9,10-dihydro-4H-benzo[d]pyrazolo[1,5-a][1,3]diazepine-3-carboxamide] | > 10000 nM
